Data as given in patent US20220288052A1, “COMPOUND FOR COMBINATION TREATMENT” (priority 2019, published 2022).
Read-outs that look alike come from different tables or passages of the source.

What was measured:
[1] = tested on: brain levels of dopamine (DA); assay: In vivo microdialysis, DA; design: species or system rat
Procedure: The purpose of the present study was to examine, by in vivo microdialysis technique, the effects after administration of compound (I) on brain levels of serotonin, noradrenalin and dopamine within the ventral hippocampus (Hipp), prefrontal cortex (PFC), striatum (STR) and nucleus accumbens (N.Acc) of anaesthetized rats and mice. Compound (I) represents dual acting serotonin/dopamine reuptake inhibitors and was tested in comparison to citalopram a selective serotonin uptake inhibitor. Compound (I) was tested following subcutaneous injections at dose levels between 0.25-30 mg/kg. […] Pre-treatment with the 5-HT1A autoreceptor antagonist WAY-100635 induced a further minor increase of the compound (I) (0.25 mg/kg) induced increase in the PFC level of 5-HT. […]

[2] = tested on: plasma protein; assay: Plasma protein binding by equilibrium dialysis, human; assay type: in vitro ADME
Procedure: The plasma protein binding was tested in rat, mouse, dog and human plasma by equilibrium dialysis. The plasma protein binding of this compound is remarkably low (Table 24).

[3] = beagle, dog, in vivo, iv
Procedure: Data presented are mean±s.e. mean where n=4 for all time points, excluding D2t7 where n=3, D3t7 where n=2, and D4t7 and D4t26 where no data was available. Animals received 1, 3, 10, and 30 mg/kg compound (I) as 4 intravenous infusions (starting at t0, D1t30, D2t30 and D3t30, respectively). Each dose was administered over 5 min, using an infusion pump, and the dose volume for each treatment was 2 ml/kg, with the exception of the fourth dose which was 3 ml/kg.
Data presented are mean±s.e. mean where n=4 for all time points, excluding D4t7 and D4t26 where no data was available. Animals received 1, 3, 10, and 30 mg/kg compound (I) as 4 intravenous infusions (starting at t0, D1t30, D2t30 and D3t30, respectively). Each dose was administered over 5 min, using an infusion pump, and the dose volume for each treatment was 2 ml/kg, with the exception of the fourth dose which was 3 ml/kg.

[4] = target: NA transporter (Rattus norvegicus, UniProt Q63380); assay: ^3H-Nisoxetine binding, rat
Chain of NA transporter (Q63380 1-617): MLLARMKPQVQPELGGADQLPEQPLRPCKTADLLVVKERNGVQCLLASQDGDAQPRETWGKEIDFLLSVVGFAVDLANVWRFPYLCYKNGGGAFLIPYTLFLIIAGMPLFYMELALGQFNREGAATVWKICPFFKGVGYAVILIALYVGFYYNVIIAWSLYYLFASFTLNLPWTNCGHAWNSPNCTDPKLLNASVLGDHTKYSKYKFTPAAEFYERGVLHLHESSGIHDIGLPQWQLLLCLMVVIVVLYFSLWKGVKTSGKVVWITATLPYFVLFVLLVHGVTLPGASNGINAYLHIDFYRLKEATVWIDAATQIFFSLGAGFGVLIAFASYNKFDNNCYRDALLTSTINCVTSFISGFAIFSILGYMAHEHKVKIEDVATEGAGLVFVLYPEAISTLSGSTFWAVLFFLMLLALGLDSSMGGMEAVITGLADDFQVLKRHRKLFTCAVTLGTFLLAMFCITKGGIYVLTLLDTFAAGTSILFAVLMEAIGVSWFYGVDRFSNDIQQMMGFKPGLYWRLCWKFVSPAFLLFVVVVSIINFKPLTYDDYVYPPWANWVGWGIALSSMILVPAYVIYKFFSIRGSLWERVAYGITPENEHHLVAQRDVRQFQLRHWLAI
Description: (§1) Compound (I) has been characterized as a monoamine reuptake inhibitor, based on the profile in a series of functional assays (Table 2).

[5] = Metabolic stability in liver microsomes, human; assay type: in vitro ADME
Procedure: (§2) The metabolic stability of compound (I) was tested in liver microsomes from all in house available species at 1 and 5 μM. One metabolite of 16 mass units higher than parent, was found in all incubations, except with human liver microsomes.

[6] = target: Nicotinic α7 (Rattus norvegicus, UniProt Q05941); assay: In-house nicotinic binding assay, Nicotinic α7
Chain of Nicotinic α7 (Q05941 23-502): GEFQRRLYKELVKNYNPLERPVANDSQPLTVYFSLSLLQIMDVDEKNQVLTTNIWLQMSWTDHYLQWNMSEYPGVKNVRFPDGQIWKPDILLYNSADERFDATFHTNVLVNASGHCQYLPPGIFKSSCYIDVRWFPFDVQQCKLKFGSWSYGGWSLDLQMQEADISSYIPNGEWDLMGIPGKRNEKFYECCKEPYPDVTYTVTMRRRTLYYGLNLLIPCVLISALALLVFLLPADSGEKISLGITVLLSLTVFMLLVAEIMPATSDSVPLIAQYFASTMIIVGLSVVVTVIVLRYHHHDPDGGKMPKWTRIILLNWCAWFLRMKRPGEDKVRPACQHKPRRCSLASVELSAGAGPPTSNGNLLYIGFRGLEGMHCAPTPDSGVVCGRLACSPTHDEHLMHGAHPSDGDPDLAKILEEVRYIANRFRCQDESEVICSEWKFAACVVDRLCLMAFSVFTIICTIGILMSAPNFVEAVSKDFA

[7] = Metabolic stability in liver microsomes, dog; assay type: in vitro ADME
Procedure: as §2

[8] = Exposure and tissue distribution after 14 days repeat dosing, mouse; assay type: in vivo; settings: for concentration at 2 h / Kp at 2 h: mouse, po, 2 h post last dose
Procedure: Single time point data is available from two 14 days repeat dose studies in mice and rats dosed to both sexes. The three low doses were performed together as one study and the top dose was performed at another occasion as a satellite study.
Samples were taken 2 h post last dose.
Plasma, brain and liver were taken 2 h post last dose.

[9] = tested on: NMRI mice; assay: Mouse stress-induced hyperthermia test (mSIH); assay type: in vivo
Procedure: FIG. 14: Stress-induced hyperthermia. When mice are confronted with a stress-full event, the body temperature rises.
Compound (I) was tested in three widely used behavioural screens for predicting anxiolytic effects in the clinic: the mouse marble burying test (mMB), mouse zero maze (mZM) and mouse stress-induced hyperthermia test (mSIH).

[10] = Metabolic stability in liver microsomes, guinea pig; assay type: in vitro ADME
Procedure: as §2

[11] = target: Nicotinic α4β2 (Rattus norvegicus, UniProt P09483+P12390); assay: In-house nicotinic binding assay, Nicotinic α4β2
Chain of Nicotinic α4β2 (P09483 31-630): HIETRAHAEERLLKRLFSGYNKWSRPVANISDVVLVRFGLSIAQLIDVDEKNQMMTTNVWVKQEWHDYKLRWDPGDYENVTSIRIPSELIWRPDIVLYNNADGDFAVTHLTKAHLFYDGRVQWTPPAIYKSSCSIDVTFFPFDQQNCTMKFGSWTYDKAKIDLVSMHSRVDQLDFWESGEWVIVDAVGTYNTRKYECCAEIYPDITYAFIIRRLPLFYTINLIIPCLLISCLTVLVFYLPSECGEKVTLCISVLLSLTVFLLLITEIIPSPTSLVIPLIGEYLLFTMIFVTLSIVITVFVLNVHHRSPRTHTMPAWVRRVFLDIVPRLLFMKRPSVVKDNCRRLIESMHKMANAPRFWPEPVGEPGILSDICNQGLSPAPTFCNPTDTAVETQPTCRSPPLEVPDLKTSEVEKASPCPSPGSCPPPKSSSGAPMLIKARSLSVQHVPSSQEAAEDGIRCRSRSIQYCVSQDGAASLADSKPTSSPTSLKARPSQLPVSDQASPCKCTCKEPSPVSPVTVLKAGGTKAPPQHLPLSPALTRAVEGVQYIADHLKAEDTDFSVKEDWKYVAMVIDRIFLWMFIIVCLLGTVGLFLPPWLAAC
Chain of Nicotinic α4β2 (P12390 25-500): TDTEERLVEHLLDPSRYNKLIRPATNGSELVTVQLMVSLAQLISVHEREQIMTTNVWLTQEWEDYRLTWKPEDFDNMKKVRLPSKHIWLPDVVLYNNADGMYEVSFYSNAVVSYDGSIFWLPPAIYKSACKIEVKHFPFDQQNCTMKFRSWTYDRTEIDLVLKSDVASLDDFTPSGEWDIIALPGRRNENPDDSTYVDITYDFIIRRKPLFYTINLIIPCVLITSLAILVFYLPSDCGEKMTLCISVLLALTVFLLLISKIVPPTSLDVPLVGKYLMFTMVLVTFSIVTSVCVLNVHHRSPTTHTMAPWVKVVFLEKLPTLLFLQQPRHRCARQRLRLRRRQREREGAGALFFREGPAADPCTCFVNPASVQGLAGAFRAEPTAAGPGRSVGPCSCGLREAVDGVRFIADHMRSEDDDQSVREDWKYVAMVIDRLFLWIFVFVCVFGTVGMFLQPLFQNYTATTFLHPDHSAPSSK

[12] = Bioavailability study in mouse; assay type: in vivo
Description: Compound (I) is absorbed quickly.

[13] = target: CYP 2D6 (Homo sapiens, UniProt P10635); assay: CYP450 inhibition, cocktail of selective substrates, 2D6; assay type: in vitro ADME; settings: CYP 2D6, Bufuralol to 1′-hydroxybufuralol; read-out: IC50 of compound (I)
Chain of CYP 2D6 (P10635 whole entry): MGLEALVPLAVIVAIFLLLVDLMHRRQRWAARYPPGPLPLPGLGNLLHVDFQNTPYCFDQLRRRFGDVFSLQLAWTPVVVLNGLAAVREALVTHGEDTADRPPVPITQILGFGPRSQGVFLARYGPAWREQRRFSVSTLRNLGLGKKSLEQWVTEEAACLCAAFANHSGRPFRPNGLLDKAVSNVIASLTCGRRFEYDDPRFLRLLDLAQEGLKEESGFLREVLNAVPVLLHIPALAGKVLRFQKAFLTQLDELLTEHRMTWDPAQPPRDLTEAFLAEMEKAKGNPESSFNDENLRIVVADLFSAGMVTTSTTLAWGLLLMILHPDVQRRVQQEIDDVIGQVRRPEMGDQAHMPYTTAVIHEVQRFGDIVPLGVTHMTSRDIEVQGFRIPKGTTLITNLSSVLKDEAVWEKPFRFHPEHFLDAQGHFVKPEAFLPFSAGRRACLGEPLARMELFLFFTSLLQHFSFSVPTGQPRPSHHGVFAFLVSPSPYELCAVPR
Procedure: Compound (I) was tested for CYP450 inhibition using a cocktail of selective substrates. […] This might be addressed later in a clinical study.

[14] = target: DA transporter (Rattus norvegicus, UniProt P23977); assay: ^3H-uptake rat, DA transporter; assay type: biochemical
Chain of DA transporter (P23977 whole entry): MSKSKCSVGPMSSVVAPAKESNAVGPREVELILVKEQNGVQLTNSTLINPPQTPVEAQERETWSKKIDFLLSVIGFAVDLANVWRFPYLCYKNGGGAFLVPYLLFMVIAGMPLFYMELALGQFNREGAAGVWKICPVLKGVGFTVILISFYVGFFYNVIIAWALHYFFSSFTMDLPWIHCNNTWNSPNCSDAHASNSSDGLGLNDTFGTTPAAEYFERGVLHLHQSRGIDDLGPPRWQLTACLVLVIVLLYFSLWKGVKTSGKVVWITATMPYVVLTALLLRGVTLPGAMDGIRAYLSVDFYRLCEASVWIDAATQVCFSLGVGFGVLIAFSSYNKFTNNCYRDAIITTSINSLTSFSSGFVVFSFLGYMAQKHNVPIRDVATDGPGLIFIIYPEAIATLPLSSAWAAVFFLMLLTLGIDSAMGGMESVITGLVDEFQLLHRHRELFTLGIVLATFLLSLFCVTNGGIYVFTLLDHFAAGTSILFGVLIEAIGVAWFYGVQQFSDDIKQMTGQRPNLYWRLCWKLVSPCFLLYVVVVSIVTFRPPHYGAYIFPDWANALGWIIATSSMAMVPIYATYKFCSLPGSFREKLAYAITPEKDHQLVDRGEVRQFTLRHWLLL
Description: as §1

[15] = female, NMRI, plasma, intravenous, 10 mg/kg
[16] = female, NMRI, plasma, po, 10 mg/kg p.o.

O=c1ccc2ccc(O[C@@H]3C[C@H]4CC[C@@H](C3)N4)cc2o1 [Compound (I), exo-7-(8-aza-bicyclo[3.2.1]oct-3-yloxy)-chromen-2-one]
DA (AUC0-160 min) ([1]; Hippocampus, 3 mg/kg s.c., 3 mg/kg): 142±36% | DA (AUC0-160 min) ([1]; N.Acc, 10 mg/kg s.c., 10 mg/kg): 192±42% | DA (AUC0-160 min) ([1]; N.Acc, 30 mg/kg s.c., 30 mg/kg): 604±88% | DA (AUC0-160 min) ([1]; Pre-frontal cortex, 1 mg/kg s.c., 1 mg/kg): 132±9% | DA (AUC0-160 min) ([1]; Pre-frontal cortex, 10 mg/kg s.c., 10 mg/kg): 211±40% | DA (AUC0-160 min) ([1]; Pre-frontal cortex, WAY100365 0.1 mg/kg + compound (I) 0.25 mg/kg): 55 ± 2% | DA (AUC0-160 min) ([1]; Striatum, 3 mg/kg s.c., 3 mg/kg): 137±21% | DA (AUC0-160 min) ([1]; Striatum, 10 mg/kg s.c., 10 mg/kg): 134±43% | Kinetic pattern of DA increase in microdialysis (nucleus accumbens) ([1]; rats, 30 mg/kg s.c., compared to bupropion 10 mg/kg s.c. and cocaine 25 mg/kg i.p.): slower kinetic pattern | fraction unbound at 2710 ng/ml [2]: 0.714 | Average conc. of compound (I) at 5 min (max), total plasma ([3]; 1 mg/kg): 631 ng/mL | Average conc. of compound (I) at 5 min (max), total plasma ([3]; 3 mg/kg): 2120 ng/mL | Average conc. of compound (I) at 5 min (max), total plasma ([3]; 10 mg/kg): 6560 ng/mL | Average conc. of compound (I) at 5 min (max), total plasma ([3]; 30 mg/kg): 15000 ng/mL | Ki [4]: 1.3 µM | Metabolite (mass units higher than parent) [5]: None | Stability at 1 μM [5]: 94% | Stability at 5 μM [5]: 93% | IC50 [6]: > 10 µM | Stability at 1 μM [7]: 100% | Stability at 5 μM [7]: 90% | concentration at 2 h ([8]; NMRI, brain, Female mice, 15 mg/kg p.o. 14 days, read-out: Brain concentration): 2640 ng/g | Kp at 2 h ([8]; NMRI, brain, Female mice, 15 mg/kg p.o. 14 days, read-out: Brain/plasma ratio): 7 | concentration at 2 h ([8]; NMRI, brain, Female mice, 30 mg/kg p.o. 14 days, read-out: Brain concentration): 7070 ng/g | Kp at 2 h ([8]; NMRI, brain, Female mice, 30 mg/kg p.o. 14 days, read-out: Brain/plasma ratio): 6 | concentration at 2 h ([8]; NMRI, brain, Female mice, 60 mg/kg p.o. 14 days, read-out: Brain concentration): 11500 ng/g | Kp at 2 h ([8]; NMRI, brain, Female mice, 60 mg/kg p.o. 14 days, read-out: Brain/plasma ratio): 6 | concentration at 2 h ([8]; NMRI, brain, Female mice, 90 mg/kg p.o. 14 days, read-out: Brain concentration): 17100 ng/g | concentration at 2 h ([8]; NMRI, brain, Male mice, 15 mg/kg p.o. 14 days, read-out: Brain concentration): 1970 ng/g | Kp at 2 h ([8]; NMRI, brain, Male mice, 15 mg/kg p.o. 14 days, read-out: Brain/plasma ratio): 7 | concentration at 2 h ([8]; NMRI, brain, Male mice, 30 mg/kg p.o. 14 days, read-out: Brain concentration): 4720 ng/g | Kp at 2 h ([8]; NMRI, brain, Male mice, 30 mg/kg p.o. 14 days, read-out: Brain/plasma ratio): 6 | concentration at 2 h ([8]; NMRI, brain, Male mice, 60 mg/kg p.o. 14 days, read-out: Brain concentration): 8080 ng/g | Kp at 2 h ([8]; NMRI, brain, Male mice, 60 mg/kg p.o. 14 days, read-out: Brain/plasma ratio): 6 | concentration at 2 h ([8]; NMRI, brain, Male mice, 90 mg/kg p.o. 14 days, read-out: Brain concentration): 21100 ng/g | Kp at 2 h ([8]; NMRI, in vivo, Female mice, 15 mg/kg p.o. 14 days, read-out: Liver/plasma ratio): 18 | Kp at 2 h ([8]; NMRI, in vivo, Female mice, 30 mg/kg p.o. 14 days, read-out: Liver/plasma ratio): 18 | Kp at 2 h ([8]; NMRI, in vivo, Female mice, 60 mg/kg p.o. 14 days, read-out: Liver/plasma ratio): 21 | Kp at 2 h ([8]; NMRI, in vivo, Male mice, 15 mg/kg p.o. 14 days, read-out: Liver/plasma ratio): 28 | Kp at 2 h ([8]; NMRI, in vivo, Male mice, 30 mg/kg p.o. 14 days, read-out: Liver/plasma ratio): 17 | Kp at 2 h ([8]; NMRI, in vivo, Male mice, 60 mg/kg p.o. 14 days, read-out: Liver/plasma ratio): 12 | concentration at 2 h ([8]; NMRI, liver, Female mice, 15 mg/kg p.o. 14 days, read-out: Liver concentration): 7160 ng/g | concentration at 2 h ([8]; NMRI, liver, Female mice, 30 mg/kg p.o. 14 days, read-out: Liver concentration): 22500 ng/g | concentration at 2 h ([8]; NMRI, liver, Female mice, 60 mg/kg p.o. 14 days, read-out: Liver concentration): 42000 ng/g | concentration at 2 h ([8]; NMRI, liver, Male mice, 15 mg/kg p.o. 14 days, read-out: Liver concentration): 8220 ng/g | concentration at 2 h ([8]; NMRI, liver, Male mice, 30 mg/kg p.o. 14 days, read-out: Liver concentration): 12700 ng/g | concentration at 2 h ([8]; NMRI, liver, Male mice, 60 mg/kg p.o. 14 days, read-out: Liver concentration): 17700 ng/g | concentration at 2 h ([8]; NMRI, plasma, Female mice, 15 mg/kg p.o. 14 days, read-out: Plasma concentration): 390 ng/mL | concentration at 2 h ([8]; NMRI, plasma, Female mice, 30 mg/kg p.o. 14 days, read-out: Plasma concentration): 1280 ng/mL | concentration at 2 h ([8]; NMRI, plasma, Female mice, 60 mg/kg p.o. 14 days, read-out: Plasma concentration): 2000 ng/mL | concentration at 2 h ([8]; NMRI, plasma, Male mice, 15 mg/kg p.o. 14 days, read-out: Plasma concentration): 289 ng/mL | concentration at 2 h ([8]; NMRI, plasma, Male mice, 30 mg/kg p.o. 14 days, read-out: Plasma concentration): 762 ng/mL | concentration at 2 h ([8]; NMRI, plasma, Male mice, 60 mg/kg p.o. 14 days, read-out: Plasma concentration): 1420 ng/mL | Linearity of kinetics after repeat dosing ([8]; mice, 15-90 mg/kg p.o. 14 days, 5% glucose): tendency to sub-linear kinetics | Kp at 2 h ([8]; brain, Female mice, 90 mg/kg p.o. 14 days, read-out: Brain/plasma ratio): 4 | Kp at 2 h ([8]; brain, Male mice, 90 mg/kg p.o. 14 days, read-out: Brain/plasma ratio): 4 | Kp at 2 h ([8]; in vivo, Female mice, 90 mg/kg p.o. 14 days, read-out: Liver/plasma ratio): 16 | Kp at 2 h ([8]; in vivo, Male mice, 90 mg/kg p.o. 14 days, read-out: Liver/plasma ratio): 16 | concentration at 2 h ([8]; liver, Female mice, 90 mg/kg p.o. 14 days, read-out: Liver concentration): 63300 ng/g | concentration at 2 h ([8]; liver, Male mice, 90 mg/kg p.o. 14 days, read-out: Liver concentration): 75000 ng/g | concentration at 2 h ([8]; plasma, Female mice, 90 mg/kg p.o. 14 days, read-out: Plasma concentration): 3980 ng/mL | concentration at 2 h ([8]; plasma, Male mice, 90 mg/kg p.o. 14 days, read-out: Plasma concentration): 4730 ng/mL | Body temperature in resting conditions ([9]; 0.1, 1 and 3 mg/kg per oral, NMRI mice): did not change body temperature in resting conditions | Stress-induced temperature rise ([9]; 0.1, 1 and 3 mg/kg per oral, NMRI mice, all three doses): temperature rise was significantly prevented | MED ([9]; mSIH, p.o., −60 min): 0.3 mg/kg | Stability at 1 μM [10]: 98% | Stability at 5 μM [10]: 82% | IC50 [11]: 31 µM | T½ i.v. ([12]; 10 mg/kg i.v., 10 mg/kg): 48 min | AUC(0-∞) p.o. ([12]; 10 mg/kg p.o., 10 mg/kg): 2308 ng·h/mL | Vd [12, 15]: 3.5 L/kg | clearance [12, 15]: 71.7 mL/min/kg | AUC(0-inf) ([12]; female, NMRI, plasma, iv, 10 mg/kg, 10 mg/kg i.v., read-out: AUC(0-∞) i.v.): 2310 ng·h/mL | half-life ([12]; female, NMRI, plasma, iv, 10 mg/kg, 10 mg/kg i.v., read-out: T½ i.v. (converted)): 36 min | Cmax [12, 16]: 1090 ng/mL | Tmax [12, 16]: 30 min | AUC(0-inf) ([12]; female, NMRI, plasma, po, 10 mg/kg, 10 mg/kg p.o., read-out: AUC(0-∞) p.o.): 1720 ng·h/mL | half-life ([12]; female, NMRI, plasma, po, 10 mg/kg, 10 mg/kg p.o., read-out: T½ p.o. (converted)): 66 min | bioavailability ([12]; plasma, oral, female NMRI mice, 10 mg/kg p.o. vs 10 mg/kg i.v.): 74% | IC50 [13]: 44 µM | IC50 [14]: 0.26 µM
